Measured values reported in US7199159B2, “Use of biguanide derivatives for making a medicine having a wound healing effect” (Centre National de la Recherche Scientifique (C.N.R.S.), priority 2000, dated 2007).

Tested on: skin wounds reproducing ulceration
Assay: cicatrization of punch skin wounds (pseudo-ulcer) treated daily with metformin ointment
Type: in vivo, Zucker fa/fa rats
Method: The efficacy of metformin was tested in vivo on skin wounds reproducing ulceration. The pseudo-ulcer was produced on 14-week-old Zucker fa/fa rats by loss of matter of circular shape 8 mm in diameter made by a “punch”, down to the muscle layer. […] The speed of the cicatrization was evaluated by determining the area of the wounds with a video camera coupled to a computer equipped with image analysis software.
Furthermore, metformin at a concentration of 1% by weight relative to the lipophilic phase also appears to exert an effect on neovascularizaton.
The results of the microscopic analysis of histological sections of the wounds are collated in Table 1 below.

Which “collagen density in granulation tissue” value (FIG. 3, D4) does the source give for `CN(C)C(=N)N=C(N)N` [metformin] here?
The value was “increase in the collagen density”.

And the “cicatrization (area of the wounds by image analysis)” value (daily treatment, ointment at different metformin concentrations)?
Its value is “significant improvement in cicatrization”.

What about the “epidermization compared with untreated control animals” value (different metformin concentrations) of the same compound?
Its value is “acceleration of epidermization”.

What about the “closure of the treated wounds vs untreated control wounds” value (four metformin concentrations, FIG. 2) of the same compound?
Its value is “closure of the treated wounds is faster than of the untreated control wounds”.

And the “neovascularization (density of blood capillaries on the edges of the wound)” value (metformin 1%, D5, treated vs control rats)?
The value was “greater density of blood capillaries on the edges of the wound”.

What about the “cicatrizing action, dose-response study” value (ointment with metformin at 0.02%, 0.1%, and 2%) of the same compound?
The value was “cicatrizing action for all the concentrations tested”.

What about the “speed of maturation of granulation tissue” value (rat, in vivo) of the same compound?
Its value is “significantly increases the speed of maturation of granulation tissue”.
